Results published in US6548052B2, “Antibacterial deodorizing compositions” (Innoscent Ltd., priority 1997, dated 2003).

Legend:
C. xerosis = test: Inhibition test: samples applied onto bacterial lawns, growth inhibition zone; assay type: cell-based, Corynebacterium xerosis
Protocol: (§1) The Extraction Process: […] The mixture was vortexed for 10 min and the samples were centrifuged for 30 min at 10000 rpm. The supernatant was collected and referred to as the extract. The extract was then filtered through a 0.22 or a 0.45 μm filter. Inhibition Test: The antimicrobial activity of the various extracts was examined by applying samples (5 μl) onto lawns of axillary bacteria. Following incubation of 24 hours at 37° C., inhibition was determined by measuring the diameter of the growth inhibition zone (in cm). In the tables, “+” indicates full growth inhibition(transparent zone), “−” indicates lack of inhibition, and “+/−” indicates partial inhibition (translucent zone). For the purposes of comparative testing, 5 μl aliquots of either red or black henna extracts (20% w/v in 20% v/v ethanol) are applied to the bacterial lawns.

S. epidermidis = test: as above; assay type: cell-based; details: for inhibition of S. epidermidis (in words): solvents in water, Table III
Protocol: as §1

oral species = details: Didry et al. 1994; cited from earlier work
Streptococcus aureus = details: Handbook of Medicinal Herbs; cited from earlier work

## CCO [ETHANOL, ethanol]
C. xerosis; above 40% (v/v) in water
  inhibition of C. xerosis (in words): some inhibition
C. xerosis; solvent content 5%
  Inhibition of C. xerosis: −
C. xerosis; solvent content 10%
  Inhibition of C. xerosis: −
C. xerosis; solvent content 15%
  Inhibition of C. xerosis: −
C. xerosis; solvent content 20%
  Inhibition of C. xerosis: −
C. xerosis; solvent content 25%
  Inhibition of C. xerosis: −
C. xerosis; solvent content 30%
  Inhibition of C. xerosis: −
C. xerosis; solvent content 35%
  Inhibition of C. xerosis: −
C. xerosis; solvent content 40%
  Inhibition of C. xerosis: +/−
  Inhibition of C. xerosis, zone diameter: 0.2 cm
C. xerosis; solvent content 45%
  Inhibition of C. xerosis: +/−
  Inhibition of C. xerosis, zone diameter: 0.2 cm
C. xerosis; solvent content 50%
  Inhibition of C. xerosis: +/−
  Inhibition of C. xerosis, zone diameter: 0.6 cm
C. xerosis; solvent content 55%
  Inhibition of C. xerosis: +/−
  Inhibition of C. xerosis, zone diameter: 0.6 cm
C. xerosis; solvent content 60%
  Inhibition of C. xerosis: +/−
  Inhibition of C. xerosis, zone diameter: 0.8 cm
C. xerosis; solvent content 65%
  Inhibition of C. xerosis: +/−
  Inhibition of C. xerosis, zone diameter: 0.8 cm
C. xerosis; solvent content 70%
  Inhibition of C. xerosis: +/−
  Inhibition of C. xerosis, zone diameter: 0.8 cm
C. xerosis; solvent content 75%
  Inhibition of C. xerosis: +/−
  Inhibition of C. xerosis, zone diameter: 0.8 cm
C. xerosis; solvent content 80%
  Inhibition of C. xerosis: +/−
  Inhibition of C. xerosis, zone diameter: 0.8 cm
C. xerosis; solvent content 90%
  Inhibition of C. xerosis: +
  Inhibition of C. xerosis, zone diameter: 1.1 cm
C. xerosis; solvent content 100%
  Inhibition of C. xerosis: +
  Inhibition of C. xerosis, zone diameter: 1.3 cm
S. epidermidis; solvent content 5%
  Inhibition of S. epidermidis: −
S. epidermidis; solvent content 10%
  Inhibition of S. epidermidis: −
S. epidermidis; solvent content 15%
  Inhibition of S. epidermidis: −
S. epidermidis; solvent content 20%
  Inhibition of S. epidermidis: −
S. epidermidis; solvent content 25%
  Inhibition of S. epidermidis: −
S. epidermidis; solvent content 30%
  Inhibition of S. epidermidis: −
S. epidermidis; solvent content 35%
  Inhibition of S. epidermidis: −
S. epidermidis; solvent content 40%
  Inhibition of S. epidermidis: −
S. epidermidis; solvent content 45%
  Inhibition of S. epidermidis: −
S. epidermidis; solvent content 50%
  Inhibition of S. epidermidis: −
S. epidermidis; solvent content 55%
  Inhibition of S. epidermidis: −
S. epidermidis; solvent content 60%
  Inhibition of S. epidermidis: −
S. epidermidis; solvent content 65%
  Inhibition of S. epidermidis: −
S. epidermidis; solvent content 70%
  Inhibition of S. epidermidis: −
S. epidermidis; solvent content 75%
  Inhibition of S. epidermidis: −
S. epidermidis; solvent content 80%
  Inhibition of S. epidermidis: −
S. epidermidis; solvent content 90%
  Inhibition of S. epidermidis: −
S. epidermidis; solvent content 100%
  Inhibition of S. epidermidis: −
S. epidermidis
  inhibition of S. epidermidis (in words): no inhibition

## O=C1C=C(O)C(=O)c2ccccc21 [lawsone]
C. xerosis; 0.01% in ethanol 20%
  Inhibition of C. xerosis: −
C. xerosis; 0.02% in ethanol 20%
  Inhibition of C. xerosis: −
C. xerosis; 0.2% in ethanol 20%
  Inhibition of C. xerosis: −
C. xerosis; 1.0% in ethanol 50%
  Inhibition of C. xerosis: −
C. xerosis; 1.0% in ethanol 100%
  Inhibition of C. xerosis: −
C. xerosis; 1.0% in hot water
  Inhibition of C. xerosis: −
Oral species
  antibacterial activity against oral species: antibacterial activity
S. epidermidis; 0.01% in ethanol 20%
  Inhibition of S. epidermidis: −
S. epidermidis; 0.02% in ethanol 20%
  Inhibition of S. epidermidis: −
S. epidermidis; 0.2% in ethanol 20%
  Inhibition of S. epidermidis: −
S. epidermidis; 1.0% in ethanol 50%
  Inhibition of S. epidermidis: −
S. epidermidis; 1.0% in ethanol 100%
  Inhibition of S. epidermidis: −
S. epidermidis; 1.0% in hot water
  Inhibition of S. epidermidis: −

## CO [METHANOL, methanol]
C. xerosis; above 45%
  inhibition of C. xerosis (in words): some inhibition
C. xerosis; solvent content 5%
  Inhibition of C. xerosis: −
C. xerosis; solvent content 10%
  Inhibition of C. xerosis: −
C. xerosis; solvent content 15%
  Inhibition of C. xerosis: −
C. xerosis; solvent content 20%
  Inhibition of C. xerosis: −
C. xerosis; solvent content 25%
  Inhibition of C. xerosis: −
C. xerosis; solvent content 30%
  Inhibition of C. xerosis: −
C. xerosis; solvent content 35%
  Inhibition of C. xerosis: −
C. xerosis; solvent content 40%
  Inhibition of C. xerosis: −
C. xerosis; solvent content 45%
  Inhibition of C. xerosis: +/−
C. xerosis; solvent content 50%
  Inhibition of C. xerosis: +/−
C. xerosis; solvent content 55%
  Inhibition of C. xerosis: +/−
C. xerosis; solvent content 60%
  Inhibition of C. xerosis: +/−
  Inhibition of C. xerosis, zone diameter: 0.8 cm
C. xerosis; solvent content 65%
  Inhibition of C. xerosis: +/−
  Inhibition of C. xerosis, zone diameter: 0.8 cm
C. xerosis; solvent content 70%
  Inhibition of C. xerosis: +/−
  Inhibition of C. xerosis, zone diameter: 0.8 cm
C. xerosis; solvent content 75%
  Inhibition of C. xerosis: +/−
  Inhibition of C. xerosis, zone diameter: 0.8 cm
C. xerosis; solvent content 80%
  Inhibition of C. xerosis: +/−
  Inhibition of C. xerosis, zone diameter: 0.8 cm
C. xerosis; solvent content 90%
  Inhibition of C. xerosis: +/−
  Inhibition of C. xerosis, zone diameter: 0.8 cm
C. xerosis; solvent content 100%
  Inhibition of C. xerosis: +/−
  Inhibition of C. xerosis, zone diameter: 0.8 cm
S. epidermidis; solvent content 5%
  Inhibition of S. epidermidis: −
S. epidermidis; solvent content 10%
  Inhibition of S. epidermidis: −
S. epidermidis; solvent content 15%
  Inhibition of S. epidermidis: −
S. epidermidis; solvent content 20%
  Inhibition of S. epidermidis: −
S. epidermidis; solvent content 25%
  Inhibition of S. epidermidis: −
S. epidermidis; solvent content 30%
  Inhibition of S. epidermidis: −
S. epidermidis; solvent content 35%
  Inhibition of S. epidermidis: −
S. epidermidis; solvent content 40%
  Inhibition of S. epidermidis: −
S. epidermidis; solvent content 45%
  Inhibition of S. epidermidis: −
S. epidermidis; solvent content 50%
  Inhibition of S. epidermidis: −
S. epidermidis; solvent content 55%
  Inhibition of S. epidermidis: −
S. epidermidis; solvent content 60%
  Inhibition of S. epidermidis: −
S. epidermidis; solvent content 65%
  Inhibition of S. epidermidis: −
S. epidermidis; solvent content 70%
  Inhibition of S. epidermidis: −
S. epidermidis; solvent content 75%
  Inhibition of S. epidermidis: −
S. epidermidis; solvent content 80%
  Inhibition of S. epidermidis: −
S. epidermidis; solvent content 90%
  Inhibition of S. epidermidis: −
S. epidermidis; solvent content 100%
  Inhibition of S. epidermidis: −
S. epidermidis
  inhibition of S. epidermidis (in words): no inhibition

## O=C1C=CC(=O)c2ccccc21 [1,4-naphthoquinone]
C. xerosis; 0.01% in ethanol 20%
  Inhibition of C. xerosis: −
C. xerosis; 0.02% in ethanol 20%
  Inhibition of C. xerosis: −
C. xerosis; 0.2% in ethanol 20%
  Inhibition of C. xerosis: +
  Inhibition of C. xerosis, zone diameter: 0.8 cm
C. xerosis; comment on Table I
  growth inhibition of C. xerosis (in words): inhibits the growth
S. epidermidis; 0.01% in ethanol 20%
  Inhibition of S. epidermidis: −
S. epidermidis; 0.02% in ethanol 20%
  Inhibition of S. epidermidis: −
S. epidermidis; 0.2% in ethanol 20%
  Inhibition of S. epidermidis: +
  Inhibition of S. epidermidis, zone diameter: 1.4 cm
S. epidermidis; comment on Table I
  growth inhibition of S. epidermidis (in words): inhibits the growth

## O=C(O)c1cc(O)c(O)c(O)c1 [gallic acid]
C. xerosis; 0.2% in ethanol 20%
  Inhibition of C. xerosis: −
C. xerosis; 0.4% in ethanol 20%
  Inhibition of C. xerosis: −
Streptococcus aureus
  inhibition of “Streptococcus aureus”: slightly
S. epidermidis; 0.2% in ethanol 20%
  Inhibition of S. epidermidis: −
S. epidermidis; 0.4% in ethanol 20%
  Inhibition of S. epidermidis: +/−
